In general, Cmax refers to the maximum level reached in the sampled fluid or tissue. For orientation: logD means the decadic logarithm of the distribution of all forms, ionised or not, between an organic phase and buffer at a given pH. Read a high logD as higher lipophilicity. By IC50 is commonly meant the point on the concentration scale where inhibition reaches its midpoint. High values mean weaker potency, low ones greater potency. A word on the AUC: it is concentration integrated over time. As a reminder, the bioavailability is the share of a dose that reaches the circulation, judged against a reference dose that is usually intravenous. A high value points to good availability. For orientation: clearance means a measure of how efficiently the substance is removed, as volume per time. High values mean a high capacity for elimination, low ones a low capacity for elimination. Usually half-life stands for the time in which the quantity being followed falls by half. A low value points to rapid decline. Broadly, the Papp A→B is how fast a substance crosses the layer from the apical side.

Structures are written as SMILES.

The values that follow come from ChEMBL document CHEMBL5136995, “Structure-based optimization of hydroxylactam as potent, cell-active inhibitors of lactate dehydrogenase” (Bioorg Med Chem Lett, 2022).

Data set [1] can be described thus: Cmax in mouse at 50 mg/kg, po. The format is ADME, organism-based. Set-up: dose 50 mg/kg, route po. To be noted: in vivo.
Data set [2] can be described thus: Cmax in mouse at 200 mg/kg, po. The class given is ADME, organism-based. On the set-up: dose 200 mg/kg, route po. The settings on record: in vivo.
Data set [3] can be described thus: Lipophilicity, logD of compound. The format is physicochemical. To be noted: octanol/water.
A short description of data set [4]: Cmax in mouse at 5 mg/kg, po. The class given is ADME, organism-based. Set-up: dose 5 mg/kg, route po. To be noted: in vivo.
The nature of data set [5]: Toxicity in mouse xenografted with human MIA PaCa-2 cells assessed as effect on body weight at 200 to 400 mg/kg administered twice a day for 28 days. The settings on record: in vivo, 672 h, dose 200-400 mg/kg, time 28 day. The class given is organism-based. On the technique in general: In xenograft studies the graft and the host belong to different species.
Data set [6] is described as follows: Volume of distribution at steady state in mouse at 1 mg/kg, iv. The format is ADME, organism-based. The settings on record: in vivo, read-out: Vdss.
The target of data set [7] is L-lactate dehydrogenase A chain (Homo sapiens, UniProt P00338). The data set can be described thus: Inhibition of LDHA (unknown origin).
Data set [8] in a line: Cmax in mouse at 100 mg/kg, po. The format is ADME, organism-based. On the set-up: dose 100 mg/kg, route po. To be noted: in vivo.
Data set [9] in a line: AUC in mouse at 50 mg/kg, po. The format is ADME, organism-based. On the set-up: dose 50 mg/kg, route po. To be noted: in vivo.
The nature of data set [10]: Inhibition of lactate production in human MIA PaCa-2 cells. The format is functional, cell-based.
A short description of data set [11]: Oral bioavailability in mouse at 5 mg/kg. The class given is ADME, organism-based. The settings on record: in vivo.
Data set [12] can be described thus: Clearance in mouse at 1 mg/kg, iv. The class given is ADME, organism-based. To be noted: in vivo.
Data set [13] in a line: Half-life in mouse at 1 mg/kg, iv. The class given is ADME, organism-based. The settings on record: in vivo.
Data set [14] in a line: Apparent permeability across apical to basolateral side in MDCK cells at 100 uM by HPLC analysis. The class given is ADME, cell-based, Canis lupus familiaris. The settings on record: dog.
The nature of data set [15]: Cmax in mouse at 1 mg/kg, iv. The format is ADME, organism-based. Set-up: dose 1 mg/kg, route iv. To be noted: in vivo.
Data set [16] in a line: AUC in mouse at 1 mg/kg, iv. The format is ADME, organism-based. Set-up: dose 1 mg/kg, route iv. The settings on record: in vivo.
Data set [17] in a line: Plasma protein binding in mouse. The format is ADME, cell-free. The settings on record: read-out: PPB.
The nature of data set [18]: AUC in mouse at 200 mg/kg, po. The class given is ADME, organism-based. The settings on record: in vivo. Set-up: dose 200 mg/kg, route po.
Data set [19] can be described thus: AUC in mouse at 5 mg/kg, po. The format is ADME, organism-based. On the set-up: dose 5 mg/kg, route po. The settings on record: in vivo.
A short description of data set [20]: AUC in mouse at 100 mg/kg, po. The class given is ADME, organism-based. Set-up: dose 100 mg/kg, route po. The settings on record: in vivo.

`O=C1N[C@](c2cccc(Nc3ccc(F)cc3)n2)(c2cccc(Nc3ccc(F)c(F)c3)n2)CC(O)=C1Sc1ccccc1Cl`: the peak concentration (Cmax) in data set [1] is 23.3 µM; in data set [2] it was 117 µM; in data set [4], 5.95 µM; in [8], 66.9 µM; in data set [15], 7.36 µM. This molecule also had a logD in data set [3] of 2.2. Also, the Activity entry in [5] is on record as “Non-Toxic”. Moreover, in data set [6], the Vd turned out to be 0.671 L/kg. In addition, the concentration for half-maximal inhibition (IC50) in data set [7] came to 1.6 nM; in data set [10], 2000 nM. For the same molecule, the exposure (AUC) in data set [9] amounted to 71.2 µM·h; in data set [16], 6.5 µM·h; in data set [18], 411 µM·h; in [19], 19.4 µM·h; in data set [20], 235 µM·h. In addition, in [11], the bioavailability stood at 59.5%. The molecule also gave a clearance in [12] of 4.89 mL/min/kg. The molecule also showed a half-life in data set [13] of 2.81 h. Also, in data set [14], the Papp A→B at 100 µM was 4.6 ×10⁻⁶ cm/s. Moreover, the fraction unbound in [17] worked out at 0.001.
